Residual activity data for 37 molecules are collected here from ChEMBL document CHEMBL3039007, “Structure-based identification of OATP1B1/3 inhibitors” (Mol Pharmacol, 2013).

Data set [1] addresses T1, Solute carrier organic anion transporter family member 1B1 (Homo sapiens, UniProt Q9Y6L6).
T1 sequence (Q9Y6L6 whole entry): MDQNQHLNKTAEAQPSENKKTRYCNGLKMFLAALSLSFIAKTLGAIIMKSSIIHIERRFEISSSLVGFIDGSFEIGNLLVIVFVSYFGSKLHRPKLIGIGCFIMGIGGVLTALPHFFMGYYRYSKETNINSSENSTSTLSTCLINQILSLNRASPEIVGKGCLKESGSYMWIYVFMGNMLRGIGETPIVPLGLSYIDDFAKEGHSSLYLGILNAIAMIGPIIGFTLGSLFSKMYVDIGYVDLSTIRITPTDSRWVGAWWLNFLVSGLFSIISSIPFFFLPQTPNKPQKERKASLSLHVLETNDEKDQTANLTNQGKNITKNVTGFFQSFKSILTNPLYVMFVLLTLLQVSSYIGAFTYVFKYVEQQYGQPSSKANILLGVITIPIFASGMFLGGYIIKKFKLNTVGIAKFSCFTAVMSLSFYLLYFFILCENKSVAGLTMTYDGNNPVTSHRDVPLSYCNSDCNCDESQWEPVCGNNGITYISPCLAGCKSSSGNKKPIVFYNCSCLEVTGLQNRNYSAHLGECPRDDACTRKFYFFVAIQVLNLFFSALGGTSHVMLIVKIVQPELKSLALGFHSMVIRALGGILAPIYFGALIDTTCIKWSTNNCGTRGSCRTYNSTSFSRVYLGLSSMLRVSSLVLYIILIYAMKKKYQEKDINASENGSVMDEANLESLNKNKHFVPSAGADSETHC
Conditions: chinese hamster, cho, 10 µM.

For data set [2], the target named is T2, Solute carrier organic anion transporter family member 1B3 (Homo sapiens, UniProt Q9NPD5).
T2 sequence (Q9NPD5 whole entry): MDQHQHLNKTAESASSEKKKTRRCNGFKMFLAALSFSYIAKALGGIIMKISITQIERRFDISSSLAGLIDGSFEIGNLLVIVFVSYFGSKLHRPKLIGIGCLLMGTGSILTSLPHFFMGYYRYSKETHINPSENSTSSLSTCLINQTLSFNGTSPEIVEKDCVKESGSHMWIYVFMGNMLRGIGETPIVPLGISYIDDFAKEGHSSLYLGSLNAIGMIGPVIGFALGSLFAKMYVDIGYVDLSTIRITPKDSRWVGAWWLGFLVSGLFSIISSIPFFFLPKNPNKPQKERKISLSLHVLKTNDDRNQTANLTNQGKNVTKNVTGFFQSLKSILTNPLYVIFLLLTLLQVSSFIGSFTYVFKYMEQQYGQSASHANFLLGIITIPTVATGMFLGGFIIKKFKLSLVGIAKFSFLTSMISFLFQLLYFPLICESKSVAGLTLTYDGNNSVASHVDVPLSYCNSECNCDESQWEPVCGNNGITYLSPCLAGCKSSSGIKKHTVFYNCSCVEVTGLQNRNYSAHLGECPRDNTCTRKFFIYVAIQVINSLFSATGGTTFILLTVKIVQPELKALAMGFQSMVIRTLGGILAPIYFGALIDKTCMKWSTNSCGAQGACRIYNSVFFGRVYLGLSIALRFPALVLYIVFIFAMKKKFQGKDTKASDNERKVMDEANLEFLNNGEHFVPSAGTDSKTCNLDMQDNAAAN
The following applies: chinese hamster, cho, 10 µM.

Structures are written as SMILES.

Take `O=C(O)c1cc2cc(F)ccc2[nH]1` [5-FLUOROINDOLE-2-CARBOXYLIC ACID]: the values for the residual activity in data set [1] and in data set [2] were 108.9% and 103.9%, respectively.
In the case of `COc1cc(O)c2c(=O)c(-c3ccccc3)coc2c1` [5-HYDROXY-7-METHOXYISOFLAVONE], the residual activity in data set [1] was 99.72%; in data set [2] it was 104.3%.
`C=C1CCC2C(CC2(C)C)C(=C)CC/C1=N/O` (centres undefined) [5-HYDROXYIMINOISOCARYOPHYLLENE]: the values for the residual activity in data set [1] and in data set [2] were 84.7% and 80.99%, respectively.
In the same order, the values of `COc1ccc2[nH]cc(CCN)c2c1` [5-METHOXYTRYPTAMINE] are 59.83% and 73.24%.
Turning to `O=C(O)c1cc([N+](=O)[O-])ccc1NCCCc1ccccc1` [5-NITRO-2-PHENYLPROPYLAMINOBENZOIC ACID [NPPB]], the residual activity in data set [1] was 40.14%; in data set [2] it was 33.43%.
Regarding `COc1ccc2c(c1)[C@@]1(C)CCC(=O)C[C@@H]1CC2` [5alpha-12-METHOXY-4,4-BISNOR-8,11,13-PODOCARPATRIEN-3-ONE], the residual activity was determined as 131.2% in data set [1] and 89.3% in data set [2].
With `CC(C)CCC[C@@H](C)[C@H]1CC[C@H]2[C@@H]3CC(=O)[C@H]4C[C@@H](O)CC[C@]4(C)[C@H]3CC[C@]12C` [5alpha-CHOLESTAN-3beta-OL-6-ONE], the residual activity was 101.9% in data set [1] and 105.8% in data set [2].
Regarding `COc1cccc(-c2cc(=O)c3cc(OC)ccc3o2)c1` [6,3'-DIMETHOXYFLAVONE], the residual activity in data set [1] was 131.7%; in data set [2], 120.4%.
With `COc1ccc(-c2cc(=O)c3cc(OC)ccc3o2)cc1` [6,4'-DIMETHOXYFLAVONE], the residual activity in data set [1] was found to be 34.44%; in data set [2], 110.4%.
For `O=C(O)c1nc2cc(Cl)c(Cl)cc2nc1O` [6,7-DICHLORO-3-HYDROXY-2-QUINOXALINECARBOXYLIC ACID], the residual activity in data set [1] is 119%; in data set [2] it was 108%.
Taken in the same sequence, the figures for `NC(=O)c1ccc(N)nc1` [6-AMINONICOTINAMIDE] were 103.2% and 108.6%.
Consider `C=C1C2CC[C@@]3(C)[C@H](c4ccoc4)OC(=O)C[C@]13O[C@H]1CC(=O)C(C)(C)[C@H](C(O)C(=O)OC)[C@@]21C` (some centres undefined) [6-HYDROXYANGOLENSIC ACID METHYL ESTER], for which the figures for the residual activity in data set [1] and in data set [2] were 23.65% and 61.1%, respectively.
As to `COc1ccc2c(=O)cc(-c3ccccc3OC)oc2c1` [7,2'-DIMETHOXYFLAVONE], the residual activity in data set [1] is given as 95.82%; in data set [2] it was 110.5%.
Regarding `COc1cccc(-c2cc(=O)c3ccc(OC)cc3o2)c1` [7,3'-DIMETHOXYFLAVONE], the residual activity worked out at 98.64% in data set [1] and 101.6% in data set [2].
Consider `O=c1cc(-c2ccccc2)oc2c(O)c(O)ccc12` [7,8-DIHYDROXYFLAVONE], for which the residual activity in data set [1] was determined as 107.3%; in data set [2], 140.6%.
With `Cn1c(=O)c2c(ncn2CCCl)n(C)c1=O` [7-CHLOROETHYLTHEOPHYLLINE], the results for the residual activity in data set [1] and in data set [2] were 90.03% and 97.15%, respectively.
On to `O=C(O)c1cc(O)c2ccc(Cl)cc2n1` [7-CHLOROKYNURENIC ACID], for which the values for the residual activity in data set [1] and in data set [2] were 93.09% and 89.9%, respectively.
Take `O=C(O)c1cc(O)c(=O)c2c(O)c(O)ccc2c1` [7-DESHYDROXYPYROGALLIN-4-CARBOXYLIC ACID]: the residual activity in data set [1] is given as 100.2%; in data set [2] it was 69.89%.
Taken in the same sequence, the figures for `COc1ccc2c(=O)ccoc2c1` [7-METHOXYCHROMONE] were 91.79% and 95.23%.
Taken in the same sequence, the figures for `O=[N+]([O-])c1cccc2cn[nH]c12` [7-NITROINDAZOLE] were 147.5% and 106.1%.
Regarding `COC(=O)[C@]1(C)CCC[C@]2(C)c3ccc(C(C)C)cc3C(=O)CC12` (some centres undefined) [7-OXOCALLITRISIC ACID, METHYL ESTER], the residual activity in data set [1] is on record as 127.8%; in data set [2] it was 105.6%.
Taken in the same sequence, the figures for `CC(C)CCC[C@@H](C)[C@H]1CC[C@H]2[C@@H]3C(=O)C=C4C[C@@H](O)CC[C@]4(C)[C@H]3CC[C@]12C` [7-OXOCHOLESTEROL] were 96.87% and 90.78%.
As for `CC(=O)O[C@H]1CC[C@@]2(C)C(=CC(=O)[C@H]3[C@@H]4CC[C@H]([C@H](C)CCCC(C)C)[C@@]4(C)CC[C@@H]32)C1` [7-OXOCHOLESTERYL ACETATE], the residual activity in data set [1] amounted to 97.51%; in data set [2], 99.45%.
Taken in the same sequence, the figures for `COc1ccccc1-c1cc(=O)c2cccc(OC)c2o1` [8,2'-DIMETHOXYFLAVONE] were 107.3% and 108%.
Take `Cn1c(=O)c2[nH]c(C3CCCC3)nc2n(C)c1=O` [8-CYCLOPENTYLTHEOPHYLLINE]: the results for the residual activity in data set [1] and in data set [2] were 111.5% and 94.04%, respectively.
In the case of `CC(=O)/C=C\[C@@H]1[C@@]2(C)CCCC(C)(C)C2CC[C@@]1(C)O` (some centres undefined) [8-HYDROXY-15,16-BISNOR-11-LABDEN-13-ONE], the figures for the residual activity in data set [1] and in data set [2] were 71.14% and 84.33%, respectively.
On to `CC1(C)C(=O)[C@H]2C[C@]3(O)C4=CC(=O)O[C@@H](c5ccoc5)[C@@]4(C)CCC3[C@](C)(C2=O)[C@H]1CC(=O)O` (some centres undefined) [8-HYDROXYCARAPINIC ACID], for which the residual activity is given as 73.89% in data set [1] and 78.38% in data set [2].
In the case of `COc1ccc([C@H]2Oc3c(I)c(OC)cc(OC)c3C[C@@H]2O)cc1OC` [8-IODOCATECHIN TETRAMETHYL ETHER], the residual activity in data set [1] is 194.8%; in data set [2], 100.1%.
Regarding `COC(=O)C[C@H]1C(C)(C)C2(O)OC34CC2C(=O)[C@]1(C)C3CC[C@]1(C)C4=CC(=O)O[C@H]1c1ccoc1` (stereo partly drawn) [8beta-HYDROXYCARAPIN, 3,8-HEMIACETAL], the residual activity in data set [1] was determined as 28.54%; in data set [2], 49.62%.
Turning to `C[C@]12CCC(=O)C=C1CCc1ccc(O)cc12` [12-HYDROXY-4,4-BISNOR-4,8,11,13-PODOCARPATETRAEN-3-ONE], the values for the residual activity in data set [1] and in data set [2] were 47.54% and 82.18%, respectively.
In the same order, the values of `COc1ccc2c(c1)[C@@]1(C)CC[C@@H](O)C[C@@H]1CC2` [12-METHOXY-4,4-BISNOR-5alpha-8,11,13-PODOCARPATRIEN-3-OL] are 95.25% and 91.61%.
As to `COc1ccc2c(c1)OC1(O)COc3cc(OC)c(OC)cc3C1=C2` (centres undefined) [12a-HYDROXY-5-DEOXYDEHYDROMUNDUSERONE], the residual activity in data set [1] is 102.5%; in data set [2] it was 119.6%.
Take `COc1cc2c(cc1OC)C1(O)C(=O)c3ccc(O)c(C(=O)O)c3OC1CO2` (centres undefined) [12a-HYDROXY-9-DEMETHYLMUNDUSERONE-8-CARBOXYLIC ACID]: the residual activity in data set [1] worked out at 215.8%; in data set [2], 86.59%.
Take `Cc1ccc2c(c1)CC[C@H]1CC(=O)CC[C@]21C` [13-METHYL-4,4-BISNOR-8,11,13-PODOCARPATRIEN-3-ONE]: the residual activity in data set [1] was 162.9%; in data set [2] it was 93.8%.
For the molecule `COc1cccc2c1CCC1=CC(=O)CC[C@@]12C` [14-METHOXY-4,4-BISNOR-4,8,11,13-PODOCARPATETRAEN-3-ONE], the residual activity in data set [1] is reported as 143.1%; in data set [2] it was 94.94%.
As for `COc1cccc2c1CCC1CC(=O)CC[C@]21C` (some centres undefined) [14-METHOXY-4,4-BISNOR-8,11,13-PODOCARPATRIEN-3-ONE], the values for the residual activity in data set [1] and in data set [2] were 118% and 100.9%, respectively.
Taken in the same sequence, the figures for `C/C1=C\CCC(=O)C2CC(C)(C)C2CC1` (centres undefined) [15-NORCARYOPHYLLEN-3-ONE] were 72.07% and 90.82%.
